# Experimental data reported in patent US20260130933A1, “PHARMACEUTICAL COMPOSITION FOR PREVENTION OR TREATMENT OF NEPHROPATHY AND/OR DIABETES MELLITUS, COMPRISING ENAVOGLIFLOZIN” (DAEWOONG PHARMACEUTICAL CO., LTD., priority 2022, published 2026).
# Experiment: Example 2: phase 3 trial, enavogliflozin 0.3 mg vs dapagliflozin 10 mg once a day for 24 weeks added to metformin in patients with type 2 diabetes (same efficacy, exploratory and safety endpoints)
# Assay type: in vivo, human
# Procedure: Subjects who met the inclusion/exclusion criteria were administered a placebo of the clinical trial drug under single-blind (subject blinding) conditions during a 2-week run-in period while continuing to receive metformin. […] The randomized subjects were administered two tablets of the clinical trial drug for each administration group once a day, and then visited the institution at weeks 6, 12, 18, and 24 during the 24-week administration period to conduct efficacy and safety evaluations.
# • 1. Change in HbA1c at week 24 after administration of clinical trial drug compared to Visit 2 (randomization)
# • 1. Change in HbA1c at each time point of weeks 6, 12, and 18 after administration of clinical trial drug compared to Visit 2 (randomization) • 2. Change in FPG at each time point of weeks 6, 12, 18, and 24 after administration of clinical trial drug compared to Visit 2 (randomization) • 3. Proportion of subjects achieving HbA1c<7% at each time point of weeks 6, 12, 18, and 24 after administration of clinical trial drug • 4. Proportion of subjects achieving HbA1c<6.5% at each time point of weeks 6, 12, 18, and 24 after administration of clinical trial drug • 5. Proportion of subjects achieving therapeutic response (HbA1c change (HbA1c at Visit 2-HbA1c at each evaluation time point)>0.5% or HbA1c<7% at each evaluation time point compared to Visit 2 (randomization)) at each time point of weeks 6, 12, 18 and 24 after administration of clinical trial drug
# • 1. Change in fasting c-peptide at each time point of weeks 6, 12, 18, and 24 after administration of clinical trial drug compared to Visit 2 (randomization) • 2. Change in body weight at each time point of weeks 6, 12, 18, and 24 after administration of clinical trial drug compared to Visit 2 (randomization) • 3. Change in fasting lipid concentration (total cholesterol, LDL-C, HDL-C, and triglycerides) at each time point of weeks 6, 12, 18, and 24 after administration of clinical trial drug compared to Visit 2 (randomization) • 4. Changes in systolic or diastolic blood pressure at each time point of weeks 6, 12, 18, and 24 after administration of clinical trial drug compared to Visit 2 (randomization) • 5. Changes in β-cell function and insulin resistance measured by HOMA-β and HOMA-IR at each time point of weeks 6, 12, 18, and 24 after administration of clinical trial drug compared to Visit 2 (randomization) • 6. Changes in renal function-related indicators (UACR, UGCR) measured by UACR at each time point of weeks 6, 12, 18, and 24 after administration of clinical trial drug compared to Visit 2 (randomization) • 7. Changes in obesity-related indicators (adiponectin, leptin) at each time point of weeks 6, 12, 18, and 24 after administration of clinical trial drug compared to Visit 2 (randomization)
# [1] = week 6, modified per-protocol set 1, enavogliflozin 0.3 mg, dapagliflozin 10 mg
# [2] = week 6, per-protocol set, enavogliflozin 0.3 mg, dapagliflozin 10 mg
# [3] = week 12, modified per-protocol set 1, enavogliflozin 0.3 mg, dapagliflozin 10 mg
smiles,measurement,setting,value
"CCOc1ccc(Cc2cc([C@@H]3O[C@H](CO)[C@@H](O)[C@H](O)[C@H]3O)ccc2Cl)cc1 [Dapagliflozin, reference compound]","HOMA-IR, Median","Week 24, PPS",1.82
same,"HOMA-β change from baseline, ANCOVA LS mean (SE)","Week 24, PPS",11.93
same,"HOMA-β change from baseline, Mean (SD)","Week 24, PPS",12.23
same,"HOMA-β change from baseline, Median","Week 24, PPS",5.30
same,"HOMA-β, Mean (SD)","Week 24, PPS",56.67
same,"HOMA-β, Median","Week 24, PPS",46.75
same,"Leptin change from baseline, ANCOVA LS mean (SE)","Week 24, PPS",-1.28 ng/mL
same,"Leptin change from baseline, Mean (SD)","Week 24, PPS",-1.31 ng/mL
same,"Leptin change from baseline, Median","Week 24, PPS",-1.17 ng/mL
same,"Leptin, Mean (SD)","Week 24, PPS",10.37 ng/mL
same,"Leptin, Median","Week 24, PPS",6.69 ng/mL
same,"UACR change from baseline, ANCOVA LS mean (SE)","Week 24, PPS",-17.37 g/kg
same,"UACR change from baseline, Mean (SD)","Week 24, PPS",-25.76 g/kg
same,"UACR change from baseline, Median","Week 24, PPS",-1.70 g/kg
same,"UACR, Mean (SD)","Week 24, PPS",31.37 g/kg
same,"UACR, Median","Week 24, PPS",11.10 g/kg
same,"UGCR change from baseline, ANCOVA LS mean (SE)","Week 24, PPS",44.94 mg/mg
same,"UGCR change from baseline, Mean (SD)","Week 24, PPS",43.01 mg/mg
same,"UGCR change from baseline, Median","Week 24, PPS",42.01 mg/mg
same,"UGCR, Mean (SD)","Week 24, PPS",45.27 mg/mg
same,"UGCR, Median","Week 24, PPS",43.81 mg/mg
same,"HDL-C change from baseline, ANCOVA LS mean (SE)","Week 24, mPPS1",3.19(0.66) mg/dL
same,"HDL-C change from baseline, Mean (SD)","Week 24, mPPS1",3.55(5.30) mg/dL
same,"HDL-C change from baseline, Median","Week 24, mPPS1",3.00 mg/dL
same,"HDL-C, Mean (SD)","Week 24, mPPS1",50.45(9.72) mg/dL
same,"HDL-C, Median","Week 24, mPPS1",50.00 mg/dL
same,"LDL-C change from baseline, ANCOVA LS mean (SE)","Week 24, mPPS1",0.93(1.98) mg/dL
same,"LDL-C change from baseline, Mean (SD)","Week 24, mPPS1",2.68(20.64) mg/dL
same,"LDL-C change from baseline, Median","Week 24, mPPS1",2.00 mg/dL
same,"LDL-C, Mean (SD)","Week 24, mPPS1",78.84(25.81) mg/dL
same,"LDL-C, Median","Week 24, mPPS1",76.00 mg/dL
same,"Triglycerides change from baseline, ANCOVA LS mean (SE)","Week 24, mPPS1",−6.70(5.28) mg/dL
same,"Triglycerides change from baseline, Mean (SD)","Week 24, mPPS1",−10.64(52.51) mg/dL
same,"Triglycerides change from baseline, Median","Week 24, mPPS1",-7.00 mg/dL
same,"Triglycerides, Mean (SD)","Week 24, mPPS1",122.28(58.14) mg/dL
same,"Triglycerides, Median","Week 24, mPPS1",110.00 mg/dL
same,"Diastolic blood pressure change from baseline, ANCOVA LS mean (SE)","Week 24, mPPS2",−4.26 mmHg
same,"Diastolic blood pressure change from baseline, Mean (SD)","Week 24, mPPS2",−3.87 mmHg
same,"Diastolic blood pressure change from baseline, Median","Week 24, mPPS2",−4.00 mmHg
same,"Diastolic blood pressure, Mean (SD)","Week 24, mPPS2",72.05 mmHg
same,"Diastolic blood pressure, Median","Week 24, mPPS2",71.00 mmHg
same,"Systolic blood pressure change from baseline, ANCOVA LS mean (SE)","Week 24, mPPS2",−6.57(1.04) mmHg
same,"Systolic blood pressure change from baseline, Mean (SD)","Week 24, mPPS2",−6.03(12.13) mmHg
same,"Systolic blood pressure change from baseline, Median","Week 24, mPPS2",−7.00 mmHg
same,"Systolic blood pressure, Mean (SD)","Week 24, mPPS2",121.40(11.90) mmHg
same,"Systolic blood pressure, Median","Week 24, mPPS2",122.00 mmHg
same,"FPG change from baseline, LS mean (SE)",week 6,−23.81(2.23) mg/dL
same,"HOMA-IR change from baseline, LS mean (SE)",week 6,−1.31(0.15)
same,"HOMA-β change from baseline, LS mean (SE)",week 6,−1.79(5.59)
same,"HbA1c change from baseline, LS mean (SE)",week 6,−0.63(0.04) % p
same,"LDL-C change from baseline, LS mean (SE)",week 6,4.20(1.95) mg/dL
same,Subjects achieving HbA1c target of <7%,week 6,(51.69) %
same,Subjects achieving HbA1c<6.5%,week 6,14.61%
same,Subjects achieving therapeutic response (HbA1c change >0.5% or HbA1c<7%),week 6,79.78%
same,"UACR change from baseline, LS mean (SE)",week 6,8.13(10.88) g/kg
same,"UGCR change from baseline, LS mean (SE)",week 6,50.10(2.80) mg/mg
same,"diastolic blood pressure change from baseline, LS mean (SE)",week 6,−1.47(0.72) mmHg
same,"fasting c-peptide change from baseline, LS mean (SE)",week 6,−0.07(0.02) ng/ml
same,"leptin change from baseline, LS mean (SE)",week 6,−1.62(0.47) ng/mL
same,Subjects achieving HbA1c target of <7%,"week 6, listed as dapagliflozin",51.69%
same,"Change from baseline in Total cholesterol, ANCOVA LS mean (SE)",[1],6.87(2.27) mg/dL
same,"Change from baseline in Total cholesterol, Mean (SD)",[1],7.71(22.44) mg/dL
same,"Change from baseline in total cholesterol, Median",[1],7.00 mg/dL
same,"fasting Total cholesterol, Mean (SD)",[1],145.62(31.91) mg/dL
same,"fasting Total cholesterol, Median",[1],145.50 mg/dL
same,"Change from baseline in FPG, ANCOVA LS mean (SE)",[2],-23.81 mg/dL
same,"Change from baseline in FPG, Mean (SD)",[2],-24.90 mg/dL
same,"Change from baseline in FPG, Median",[2],-24.00 mg/dL
same,"Change from baseline in HbA1c, ANCOVA LS mean (SE)",[2],−0.63 % p
same,"Change from baseline in HbA1c, Mean (SD)",[2],−0.58 % p
same,"Change from baseline in HbA1c, Median",[2],−0.59 % p
same,"Change from baseline in body weight, ANCOVA LS mean (SE)",[2],−1.61(0.21) kg
same,"Change from baseline in body weight, Mean (SD)",[2],−1.60(1.25) kg
same,"Change from baseline in body weight, Median",[2],-1.50 kg
same,"Change from baseline in fasting c-peptide, ANCOVA LS mean (SE)",[2],−0.07(0.02) ng/mL
same,"Change from baseline in fasting c-peptide, Mean (SD)",[2],−0.07(0.18) ng/mL
same,"Change from baseline in fasting c-peptide, Median",[2],-0.07 ng/mL
same,"FPG, Mean (SD)",[2],124.37 mg/dL
same,"FPG, Median",[2],122.00 mg/dL
same,"HbA1c, Mean (SD)",[2],7.10%
same,"HbA1c, Median",[2],6.98%
same,"Subjects achieving HbA1c target of <6.5%, (%)",[2],(14.61) %
same,"Subjects achieving therapeutic glycemic response, (%)",[2],(79.78) %
same,"body weight, Mean (SD)",[2],68.88(11.86) kg
same,"body weight, Median",[2],66.90 kg
same,"fasting c-peptide, Mean (SD)",[2],0.66(0.20) ng/mL
same,"fasting c-peptide, Median",[2],0.63 ng/mL
same,"FPG change from baseline, LS mean (SE)",week 12,−30.11(2.03) mg/dL
same,"HOMA-IR change from baseline, LS mean (SE)",week 12,−1.60(0.17)
same,"HOMA-β change from baseline, LS mean (SE)",week 12,8.75(3.15)
same,"HbA1c change from baseline, LS mean (SE)",week 12,−0.79(0.05) % p
same,"LDL-C change from baseline, LS mean (SE)",week 12,0.56(1.73) mg/dL
same,Subjects achieving HbA1c target of <7%,week 12,(63.64) %
same,Subjects achieving HbA1c<6.5%,week 12,26.14%
same,Subjects achieving therapeutic response (HbA1c change >0.5% or HbA1c<7%),week 12,79.55%
same,"UACR change from baseline, LS mean (SE)",week 12,−3.38(7.57) g/kg
same,"UGCR change from baseline, LS mean (SE)",week 12,45.14(2.66) mg/mg
same,"diastolic blood pressure change from baseline, LS mean (SE)",week 12,−4.35(0.81) mmHg
same,"fasting c-peptide change from baseline, LS mean (SE)",week 12,−0.09(0.02) ng/ml
same,"leptin change from baseline, LS mean (SE)",week 12,−2.70(0.51) ng/mL
same,Subjects achieving HbA1c target of <7%,"week 12, listed as dapagliflozin",63.64%
same,"Change from baseline in Total cholesterol, ANCOVA LS mean (SE)",[3],4.25(2.04) mg/dL
same,"Change from baseline in Total cholesterol, Mean (SD)",[3],5.47(18.88) mg/dL
same,"Change from baseline in total cholesterol, Median",[3],5.00 mg/dL
